Data taken from patent US20110130405A1, “SUBSTITUTED QUINAZOLINES AS BLOOD PLATELET LOWERING AGENTS” (Shire LLC, priority 2008, published 2011).

Columns and labels:
[1] = test system: human phosphodiesterase III (PDE III); assay: PDE III inhibition; type: biochemical; conditions: more potent than anagrelide
From the text: In early volunteer trials, the most frequently reported adverse effects AEs other than headache were palpitations, postural dizziness and nausea. During patient studies, the most frequently reported drug-related AEs were headache, palpitations, oedema/fluid retention, nausea/vomiting, diarrhea, dizziness and abdominal pain. These effects are all likely to arise from the secondary, cardiovascular pharmacology associated with anagrelide resulting from its inhibitory effects on human phosphodiesterase III (PDE III). […] Inhibition of myocardial PDE III leads to positive inotropy (increasing of the force of contractions of the heart), increased chronotropy (increase in heart rate), and peripheral vasodilatation. Such cardiovascular manifestations of this inhibition are typically seen with the classical positive inotropes, milrinone and enoximone, and exploited in the short-term acute treatment of congestive heart failure. However, in the treatment of a so-called silent disease (i.e., asymptomatic) such as ET, the cardiovascular side-effects of palpitations and tachycardia associated with anagrelide limit its utility and a significant proportion of patients—reportedly between 25 and 50%—fail to tolerate the drug during long term treatment.

[2] = pharmacokinetics in humans; type: in vivo, human; conditions: after anagrelide treatment
From the text: The metabolism of anagrelide generally proceeds extremely rapidly, resulting in a less than ideal pharmacokinetic profile of the drug. […] This, combined with the side-effects profile, can lead to poor patient compliance. Furthermore, anagrelide undergoes a large first pass effect (>50%) leading to considerable intersubject variation in achieved exposures and, therefore, potentially variable drug response. Also, exposure to the pharmacologically active metabolite varies dramatically between patients since its formation is dependent on CYP1A, an enzyme whose expression is highly dependent on exposure to inducing agents such as cigarette smoke. Overall, this may result in the need for careful dose titration in patients being treated with anagrelide.

[3] = test system: human megakaryocytopoiesis; conditions: cited from earlier work
[4] = human; cited from earlier work
[5] = test system: erythroid or myelomonocytic differentiation; conditions: stimulated by erythropoietin or granulocyte-macrophage colony-stimulating factor; cited from earlier work
[6] = biological target: human phosphodiesterase III (PDE III); conditions: cited from earlier work

Row | potency as PDE III inhibitor relative to anagrelide [1] | in vivo exposure relative to parent drug [2] | SMILES | potency of inhibition of megakaryocytopoiesis relative to parent drug ([3]; compared with anagrelide) | typical half-life [4] [h] | IC50 ([3]; in vitro, dose-dependent, read-out: estimated IC50, inhibition of TPO-induced megakaryocytopoiesis) [µM] | effect on erythroid or myelomonocytic differentiation [5] | IC50 [6] [µM] | first pass effect [4] [%]
1 | over 40 fold | 2-3 fold | O=C1NC2=Nc3ccc(Cl)c(Cl)c3CN2C1O (stereo not drawn) [3-hydroxyanagrelide] | no more potent than the parent drug | 2.5 |  |  |  | 
2 |  |  | O=C1CN2Cc3c(ccc(Cl)c3Cl)N=C2N1 [Anagrelide, 6,7-dichloro-1,5-dihydroimidazo[2,1-b]-quinazolin-2(3H)-one] |  |  | ~0.026 | does not affect | ~0.029 | > 50
3 |  |  | Cc1[nH]c(=O)c(C#N)cc1-c1ccncc1 [milrinone] |  |  |  |  | 0.17 to 0.35 | 
